This note sets out measurements from US20180194762A1 (Pharmacyclics LLC, priority 2017, published 2018).

Assay type in all cases: biochemical
For test [1], the target named is T1, Btk (Homo sapiens, UniProt Q06187).
T1 construct: purified from insect cells as a full-length construct containing a N-terminal 6X-His tag; His6 (N); made in house; host or cells: insect cells (Method C)
The test can be described thus: Btk in vitro inhibitory activity (one of Method A TR-FRET, Method B electrophoretic mobility shift, Method C radiometric filter binding). The note with it: wild-type Btk; read-out: Btk-WT IC50. In a few lines:
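Method A: TR-FRET with 0.5 nM Btk at [ATP]=Km, EDTA-quenched, 665/615 nm ratio; Ki(app) converted to IC50. Method B: 1 nM full-length His6 human BTK, 1 μM FAM peptide, pH 7.5, mobility-shift product/sum ratio, 12-point 4-parameter fit. Method C: radiometric filter binding, 8 nM His-tagged BTK, 0.2 mg/mL poly-Glu-Tyr.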
(In general: A gel shift assay detects complexes by their altered migration in electrophoresis.)

Test [2] has as its target T2, TEC (Homo sapiens, UniProt P42680).
T2 sequence (P42680 1-631): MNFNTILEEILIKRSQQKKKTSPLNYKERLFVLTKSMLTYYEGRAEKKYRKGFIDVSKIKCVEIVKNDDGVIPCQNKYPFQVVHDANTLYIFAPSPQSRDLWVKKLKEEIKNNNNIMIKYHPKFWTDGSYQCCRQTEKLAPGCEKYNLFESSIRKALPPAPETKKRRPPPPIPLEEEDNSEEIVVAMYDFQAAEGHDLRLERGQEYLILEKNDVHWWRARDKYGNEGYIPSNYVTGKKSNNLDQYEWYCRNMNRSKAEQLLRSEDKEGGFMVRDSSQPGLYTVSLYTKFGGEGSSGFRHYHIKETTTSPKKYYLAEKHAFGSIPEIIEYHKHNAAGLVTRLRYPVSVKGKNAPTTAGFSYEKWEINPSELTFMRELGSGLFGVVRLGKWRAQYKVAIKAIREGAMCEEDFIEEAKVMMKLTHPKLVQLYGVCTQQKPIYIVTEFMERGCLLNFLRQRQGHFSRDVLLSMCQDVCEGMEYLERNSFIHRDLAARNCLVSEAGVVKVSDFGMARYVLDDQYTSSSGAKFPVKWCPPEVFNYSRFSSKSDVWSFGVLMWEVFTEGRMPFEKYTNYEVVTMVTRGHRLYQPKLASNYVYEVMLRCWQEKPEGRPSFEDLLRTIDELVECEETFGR
Kind of test: Inhibition of a panel of kinases (in vitro HotSpot kinase assay, 33P-ATP, 1 μM ATP). The note with it: for IC50: HotSpot kinase assay, 1 μM ATP; for TEC/Btk: ratio of TEC IC50 to Btk IC50 (selectivity). In a few lines:
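Degree of kinase inhibition is determined in vitro using isolated enzymes, a matched substrate and radiolabelled ATP (1 μM).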

Test [3] has as its target T3, panel of kinases (Homo sapiens, UniProt P51813).
T3 sequence (P51813 1-675): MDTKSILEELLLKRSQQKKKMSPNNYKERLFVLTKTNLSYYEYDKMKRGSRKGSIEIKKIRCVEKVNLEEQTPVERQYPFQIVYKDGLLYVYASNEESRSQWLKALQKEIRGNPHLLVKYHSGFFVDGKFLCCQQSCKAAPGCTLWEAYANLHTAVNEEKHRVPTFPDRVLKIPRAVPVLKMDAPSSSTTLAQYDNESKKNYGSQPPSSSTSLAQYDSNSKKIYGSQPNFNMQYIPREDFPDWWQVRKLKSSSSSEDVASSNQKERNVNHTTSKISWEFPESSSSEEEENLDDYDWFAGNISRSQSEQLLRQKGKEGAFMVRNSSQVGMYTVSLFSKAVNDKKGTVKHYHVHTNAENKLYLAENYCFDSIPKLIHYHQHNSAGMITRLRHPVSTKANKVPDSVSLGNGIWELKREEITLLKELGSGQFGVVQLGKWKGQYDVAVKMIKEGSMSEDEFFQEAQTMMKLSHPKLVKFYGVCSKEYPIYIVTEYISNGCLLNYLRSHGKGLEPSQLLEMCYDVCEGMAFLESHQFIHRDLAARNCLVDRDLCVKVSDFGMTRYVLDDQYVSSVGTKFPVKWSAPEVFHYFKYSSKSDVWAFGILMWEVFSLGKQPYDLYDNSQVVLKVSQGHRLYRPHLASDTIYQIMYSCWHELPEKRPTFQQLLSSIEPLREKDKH
Kind of test: Inhibition of a panel of kinases (in vitro HotSpot kinase assay, 33P-ATP, 1 μM ATP), other kinases. The note with it: BMX wild-type, read-out: BMX-WT IC50. The protocol:
Example 63: Inhibition of a Panel of Kinases The degree of inhibition of a panel of kinases is determined using the in vitro HotSpot kinase assay (purified enzymes, ^33P-ATP, an appropriate substrate and 1 μM ATP).

T1 sequence (Q06187 whole entry): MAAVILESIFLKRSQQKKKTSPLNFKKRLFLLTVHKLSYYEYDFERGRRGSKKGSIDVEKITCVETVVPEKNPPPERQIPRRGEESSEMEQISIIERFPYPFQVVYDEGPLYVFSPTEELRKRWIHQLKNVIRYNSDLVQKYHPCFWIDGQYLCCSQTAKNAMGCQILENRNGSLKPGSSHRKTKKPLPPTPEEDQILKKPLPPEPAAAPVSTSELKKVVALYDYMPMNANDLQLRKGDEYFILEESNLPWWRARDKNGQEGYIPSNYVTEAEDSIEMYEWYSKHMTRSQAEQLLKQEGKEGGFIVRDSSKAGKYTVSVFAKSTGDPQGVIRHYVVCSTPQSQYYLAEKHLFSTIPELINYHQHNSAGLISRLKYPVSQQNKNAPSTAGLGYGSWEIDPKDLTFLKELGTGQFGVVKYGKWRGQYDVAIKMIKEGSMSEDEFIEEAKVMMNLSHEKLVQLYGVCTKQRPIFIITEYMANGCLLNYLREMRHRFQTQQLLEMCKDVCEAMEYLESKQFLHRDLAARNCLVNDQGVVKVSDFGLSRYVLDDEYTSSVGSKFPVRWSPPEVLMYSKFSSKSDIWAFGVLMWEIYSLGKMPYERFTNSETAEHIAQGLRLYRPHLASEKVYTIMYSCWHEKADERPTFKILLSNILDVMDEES

As usually defined, the IC50 is the point on the concentration scale where inhibition reaches its midpoint. Take `CC(C)(C)c1nc(C(=O)NC2(c3ccc(-c4ccnc5[nH]nc(N[C@@H]6CCNC6)c45)cc3)CC2)no1` [Compound 1, 5-tert-butyl-N-{1-[4-(3-{[(3R)-pyrrolidin-3-yl]amino}-1H-pyrazolo[3,4-b]pyridin-4-yl)phenyl]cyclopropyl}-1,2,4-oxadiazole-3-carboxamide]: the IC50 in test [1] is 57.7 nM; in test [2], above 10000 nM; in test [3], above 10000 nM. For the same compound, in test [2], the TEC/Btk is on record as above 100.
Regarding `CC(C)(C)c1nc(C(=O)NCc2ccc(-c3ccnc4[nH]nc(N[C@@H]5CCNC5)c34)cc2F)no1` [Compound 2, (R)-5-(tert-butyl)-N-(2-fluoro-4-(3-(pyrrolidin-3-ylamino)-1H-pyrazolo[3,4-b]pyridin-4-yl)benzyl)-1,2,4-oxadiazole-3-carboxamide], the IC50 in test [1] was 11.6 nM; in test [2], 950 nM; in test [3] it was 1980 nM. Besides, the TEC/Btk in test [2] came out at 82.
Turning to `C=CC(=O)N1CC[C@@H](Nc2n[nH]c3nccc(-c4ccc(CNC(=O)c5noc(C(C)(C)C)n5)c(F)c4)c23)C1` [Compound 3, (R)—N-(4-(3-((1-acryloylpyrrolidin-3-yl)amino)-1H-pyrazolo[3,4-b]pyridin-4-yl)-2-fluorobenzyl)-5-(tert-butyl)-1,2,4-oxadiazole-3-carboxamide], the IC50 in test [1] came out at 0.205 nM; in test [2] it was 20 nM; in test [3], 39 nM. Further, in test [2], the TEC/Btk is given as 98.
Taken in the same sequence, the figures for `C=CC(=O)N1CC[C@@H](Nc2n[nH]c3nccc(-c4ccc(C5(NC(=O)c6noc(C(C)(C)C)n6)CC5)cc4)c23)C1` [Compound 4, (R)—N-(1-(4-(3-((1-acryloylpyrrolidin-3-yl)amino)-1H-pyrazolo[3,4-b]pyridin-4-yl)phenyl)cyclopropyl)-5-(tert-butyl)-1,2,4-oxadiazole-3-carboxamide] were 0.559 nM, 103 nM, 132 nM and 184.
Taken in the same sequence, the figures for `CCC(=O)N1CC[C@@H](Nc2n[nH]c3nccc(-c4ccc(C5(NC(=O)c6noc(C(C)(C)C)n6)CC5)cc4)c23)C1` [Compound 5, (R)-5-(tert-butyl)-N-(1-(4-(3-((1-propionylpyrrolidin-3-yl)amino)-1H-pyrazolo[3,4-b]pyridin-4-yl)phenyl)cyclopropyl)-1,2,4-oxadiazole-3-carboxamide] were 52.7 nM, 2590 nM, 4350 nM and 49.
Taken in the same sequence, the figures for `C=CC(=O)N1CC[C@@H](Nc2n[nH]c3nccc(-c4ccc(CNC(=O)c5ccc(C(C)(C)C)cc5)c(F)c4)c23)C1` [Compound 6, 4-tert-butyl-N-{[2-fluoro-4-(3-{[(3R)-1-(prop-2-enoyl)pyrrolidin-3-yl]amino}-1H-pyrazolo[3,4-b]pyridin-4-yl)phenyl]methyl}benzamide] were 0.62 nM, 130 nM, 182 nM and 210.
Take `CC#CC(=O)N1CC[C@@H](Nc2n[nH]c3nccc(-c4ccc(CNC(=O)c5ccc(C(C)(C)C)cc5)c(F)c4)c23)C1` [Compound 7, N-{[4-(3-{[(3R)-1-(but-2-ynoyl)pyrrolidin-3-yl]amino}-1H-pyrazolo[3,4-b]pyridin-4-yl)-2-fluorophenyl]methyl}-4-tert-butylbenzamide]: the IC50 in test [1] was 1.65 nM; in test [2], 296 nM; in test [3] it was 274 nM. Further, the TEC/Btk in test [2] is listed as 179.
`CC(C)(C)c1ccc(C(=O)NCc2ccc(-c3ccnc4[nH]nc(N[C@@H]5CCNC5)c34)cc2F)cc1` [Compound 8, 4-tert-butyl-N-{[2-fluoro-4-(3-{[(3R)-pyrrolidin-3-yl]amino}-1H-pyrazolo[3,4-b]pyridin-4-yl)phenyl]methyl}benzamide]: the figures for the IC50 in test [1], in test [2] and in test [3] were 144 nM, above 10000 nM and above 10000 nM, respectively.
`C=CC(=O)N[C@@H]1CCCC[C@H]1Nc1n[nH]c2nccc(-c3ccc(CNC(=O)c4cc(C(C)(C)C)on4)c(F)c3)c12` [Example 313, 5-tert-butyl-N-({2-fluoro-4-[3-({(1R,2R)-2-[(prop-2-enoyl)amino]cyclohexyl}amino)-1H-pyrazolo[3,4-b]pyridin-4-yl]phenyl}methyl)-1,2-oxazole-3-carboxamide]: the IC50 in test [1] was 8.74 nM; in test [3], 5230 nM.
Taken in the same sequence, the figures for `O=C(NCc1ccc(-c2ccnc3[nH]nc(NC4CCNC4)c23)cc1F)c1cc(Cl)on1` (centres unmarked) [Example 341, 5-chloro-N-[(2-fluoro-4-{3-[(pyrrolidin-3-yl)amino]-1H-pyrazolo[3,4-b]pyridin-4-yl}phenyl)methyl]-1,2-oxazole-3-carboxamide] were 901 nM and 2030 nM.
Taken in the same sequence, the figures for `O=C(NCc1ccc(-c2ccnc3[nH]nc(NC4CCNC4)c23)cc1F)c1ccc2c(c1)OCCCO2` (centres unmarked) [Example 350, N-[(2-fluoro-4-{3-[(pyrrolidin-3-yl)amino]-1H-pyrazolo[3,4-b]pyridin-4-yl}phenyl)methyl]-3,4-dihydro-2H-1,5-benzodioxepine-7-carboxamide] were 719 nM and 7000 nM.
On the same counts, the results for `O=C(NCc1ccc(-c2ccnc3[nH]nc(N[C@@H]4CCNC4)c23)cc1F)c1ccc2scnc2c1` [Example 352, (R)-N-[(2-fluoro-4-{3-[(pyrrolidin-3-yl)amino]-1H-pyrazolo[3,4-b]pyridin-4-yl}phenyl)methyl]-1,3-benzothiazole-5-carboxamide] are 108 nM and 1530 nM.
In the case of `CC(=O)N[C@@H]1CCN(c2n[nH]c3nccc(-c4ccc([C@@H](C)NC(=O)c5cc(C(C)(C)O)on5)cc4)c23)C1` [Example 363, N-[(1R)-1-(4-{3-[(3R)-3-acetamidopyrrolidin-1-yl]-1H-pyrazolo[3,4-b]pyridin-4-yl}phenyl)ethyl]-5-(2-hydroxypropan-2-yl)-1,2-oxazole-3-carboxamide], the IC50 in test [1] was found to be 48.3 nM; in test [3], 5500 nM.
Taken in the same sequence, the figures for `C[C@@H](NC(=O)c1nc(C(C)(C)C)no1)c1ccc(-c2ccnc3[nH]nc(NC4CCN(S(C)(=O)=O)C4)c23)cc1` (stereo partly drawn) [Example 386, 3-tert-butyl-N-{(1R)-1-[4-(3-{[1-(methanesulfonyl)pyrrolidin-3-yl]amino}-1H-pyrazolo[3,4-b]pyridin-4-yl)phenyl]ethyl}-1,2,4-oxadiazole-5-carboxamide] were 10.5 nM and 6920 nM.
On the same counts, the results for `C[C@@H](NC(=O)c1nc(C(C)(C)C)no1)c1ccc(-c2ccnc3[nH]nc(NC4CCN(S(C)(=O)=O)CC4)c23)cc1` [Example 387, 3-tert-butyl-N-{(1R)-1-[4-(3-{[1-(methanesulfonyl)piperidin-4-yl]amino}-1H-pyrazolo[3,4-b]pyridin-4-yl)phenyl]ethyl}-1,2,4-oxadiazole-5-carboxamide] are 27.3 nM and 7210 nM.
Taken in the same sequence, the figures for `C[C@@H](NC(=O)c1cc(C(C)(C)O)on1)c1ccc(-c2ccnc3[nH]nc(NC4CCOC4)c23)cc1` (stereo partly drawn) [Example 398, 5-(2-hydroxypropan-2-yl)-N-[(1R)-1-(4-{3-[(oxolan-3-yl)amino]-1H-pyrazolo[3,4-b]pyridin-4-yl}phenyl)ethyl]-1,2-oxazole-3-carboxamide] were 625 nM and 5730 nM.
